Experimental data taken from patent publication US20230045685A1, “COPPER CLUSTERS, COMPOSITION, AND METHOD FOR TREATMENT OF LIVER CIRRHOSIS” (Wuhan Vast Conduct Science Foundation CO., LTD., priority 2020, published 2023).

Key:
[1] = test system: CCl4-induced liver cirrhosis in a mouse model; experiment: HE staining pathological examination of liver tissue in CCl4-induced liver cirrhosis model mice; format: in vivo, C57BL/6N mice; conditions: sorafenib 25 mg/kg intragastrically, 20 days, vs model control group
Source text: (§1) 70 SPF male C57BL/6N mice, 6-8 weeks old and 16-20 g body weight, were purchased from Beijing Huafukang Experimental Animal Technology Co., Ltd. (production license number: SOCK (Jing) 2019-0008). According to body weight, they were randomly divided into 7 groups (n=10): blank control group, model group, positive control group, Cu-1 low dose group, Cu-1 high dose group, Cu-2 low dose group, Cu-2 high dose group.
(§2) Except for the blank control group, liver cirrhosis model of mice in other groups was prepared by the treatment of carbon tetrachloride (CCl4)-induction method. The modeling protocoal was as follows: (1) Each mouse was intraperitoneally injected with 10% CCl4 (diluted with olive oil) at 7 μL/g body weight, twice a week for a total of 8 weeks; mice of the blank control group were injected intraperitoneally with the same amount of olive oil solvent. (2) from the 6th week, two mice were selected and killed 48 hours after the last injection every week. The appearance of the liver was observed. After the appearance was in line with the characteristics of cirrhosis (the 8th week), the liver tissue was fixed with formalin. HE staining and Masson staining were used to evaluate the model of cirrhosis. […]

[2] = test system: CCl4-induced liver cirrhosis in a mouse model; experiment: Serum biochemical testing (ALT, AST, TBil, MAO, ALB) in CCl4-induced liver cirrhosis model mice; format: in vivo, C57BL/6N mice; conditions: sorafenib 25 mg/kg intragastrically, once a day for 20 days
Source text: as §1, §2

## CNC(=O)c1cc(Oc2ccc(NC(=O)Nc3ccc(Cl)c(C(F)(F)F)c3)cc2)ccn1 [Sorafenib]
[1]
  HE staining: liver pathology: significant reduction of liver damages
[2]; model group 188.5±4.9, P<0.01
  serum ALT activity: 42.8±5.4 U/L
[2]; model group 192.0±11.3, P<0.05
  serum AST activity: 165.5±11.6 U/L
